As a reminder, the IC50 is the concentration that inhibits the measured activity by half. The low end stands for greater potency in that assay, the high end for weaker potency in that assay.

Experiment [1] concerns the target Macrophage metalloelastase (Homo sapiens, UniProt P39900). Kind of experiment: MMP12 Inhibition Assay. The following applies: pH 8; 25 °C. The method, then: The synthesized compounds were assayed for the inhibitory activities against MMP-12 in 96-well microtiter plates using thiopeptolide as the substrate. MMP-12 was diluted in Assay buffer (50 mM Tris pH7.5, 0.05% Brij-35, 10 mM CaCl2, 1 mM DTNB) to a concentration of 0.007 U/µL. The MMP-12 solution (44 µL) was premixed with 1 µL of inhibitors dissolved in DMSO in a 96-well plate, and the mixture was incubated for 20 min at room temperature. Then, 5 µL of 1 mM MMP chromogenic substrate (thiopeptolide) was added to the mixture, and the reaction mixture was incubated for 30-80 min at 37 °C. Reaction was terminated by adding 7 µL of 0.2 M EDTA (pH 8.0). The intensity of the color developed by the digested substrate was measuredat 405 nm.

For experiment [2], the target named is 72 kDa type IV collagenase (Homo sapiens, UniProt P08253). Kind of experiment: MMP2 Inhibition Assay. The following applies: pH 8.5; 25 °C. The method, then: The synthesized compounds were assayed for the inhibitory activities against MMP-2 in 96-well microtiter plates using succinylated gelatin as the substrate. The compound and enzyme were dissolved in sodium borate buffer (pH 8.5, 50 mM) and incubated at 37 °C for 30 min. The substrate was added and incubated at 37 °C for another 60 min. The 100% and blank groups were also carried out, in which the 100% group contained not compound and the blank group contained […]. Then, 0.03% picrylsulfonic acid solution was added and incubated at room temperature for additional 20 min. The resulting solutions were measured under 450 nm.
Sequence of 72 kDa type IV collagenase (P08253 whole entry): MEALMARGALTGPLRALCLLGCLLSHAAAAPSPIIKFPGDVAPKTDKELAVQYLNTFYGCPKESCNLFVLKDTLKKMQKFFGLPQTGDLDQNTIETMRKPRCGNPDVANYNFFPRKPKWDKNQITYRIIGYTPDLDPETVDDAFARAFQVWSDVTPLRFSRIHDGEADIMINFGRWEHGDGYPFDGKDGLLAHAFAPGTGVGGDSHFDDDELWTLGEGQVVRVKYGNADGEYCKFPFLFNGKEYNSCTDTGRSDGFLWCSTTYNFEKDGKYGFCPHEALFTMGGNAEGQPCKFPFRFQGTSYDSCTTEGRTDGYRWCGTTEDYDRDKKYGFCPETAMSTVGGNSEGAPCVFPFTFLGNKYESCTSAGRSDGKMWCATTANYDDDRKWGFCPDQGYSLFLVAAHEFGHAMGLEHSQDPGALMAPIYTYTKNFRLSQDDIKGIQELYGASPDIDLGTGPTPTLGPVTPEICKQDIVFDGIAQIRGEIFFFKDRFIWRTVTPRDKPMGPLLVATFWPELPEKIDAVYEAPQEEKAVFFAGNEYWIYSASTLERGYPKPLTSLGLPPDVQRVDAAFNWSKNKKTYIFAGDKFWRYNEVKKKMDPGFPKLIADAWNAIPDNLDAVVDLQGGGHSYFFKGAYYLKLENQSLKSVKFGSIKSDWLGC

Sequence of Macrophage metalloelastase (P39900 whole entry): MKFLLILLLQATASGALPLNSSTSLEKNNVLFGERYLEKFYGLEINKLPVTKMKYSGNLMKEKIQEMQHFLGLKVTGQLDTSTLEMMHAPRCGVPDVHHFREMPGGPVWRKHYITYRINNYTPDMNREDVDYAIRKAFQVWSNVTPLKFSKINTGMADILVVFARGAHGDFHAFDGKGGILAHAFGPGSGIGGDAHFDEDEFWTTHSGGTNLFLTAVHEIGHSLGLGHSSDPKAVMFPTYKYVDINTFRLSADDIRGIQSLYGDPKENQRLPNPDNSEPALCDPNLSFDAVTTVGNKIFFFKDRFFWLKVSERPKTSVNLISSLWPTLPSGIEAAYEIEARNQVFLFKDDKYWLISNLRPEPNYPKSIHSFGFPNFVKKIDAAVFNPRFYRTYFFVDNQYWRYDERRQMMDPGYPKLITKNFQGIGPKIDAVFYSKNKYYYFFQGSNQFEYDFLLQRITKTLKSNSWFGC

For `Cn1c(C(=O)NNC(=S)Nc2ccccc2F)cc(Br)c1Br` [2-(1-Methyl-4,5-dibromo-1H-pyrrole-2-carbonyl)-N-(2-fluorophenyl)hydrazine carbothioamide (5n)], the IC50 in experiment [1] came out at 43.1 µM; in experiment [2], 8 µM.
In the same order, the values of `COc1cc(NC(=S)NNC(=O)c2cc(Br)c(Br)n2C)cc(OC)c1OC` [2-(1-Methyl-4,5-dibromo-1H-pyrrole-2-carbonyl)-N-(3,4,5-trimethoxyphenyl) hydrazine carbothioamide (5t)] are 23.8 µM and 19.2 µM.
Take `Cn1c(C(=O)NNC(=O)Nc2ccco2)cc(Br)c1Br` [2-(1-Methyl-4,5-dibromo-1H-pyrrole-2-carbonyl-N-(furan-2-yl))hydrazine carboxamide (4s)]: the 50% inhibitory concentration (IC50) in experiment [1] came out at 84.2 µM; in experiment [2], 60.3 µM.
The like results for `O=C(NNC(=S)Nc1ccc(Cl)cc1)c1cc(Br)c(Br)[nH]1` [2-(4,5-Dibromo-1H-pyrrole-2-carbonyl)-N-(4-chlorophenyl)hydrazine carbothioamide (5e)] were, in that order, 29 µM and 1.8 µM.
In the same order, the values of `O=C(NNC(=S)Nc1ccc([N+](=O)[O-])cc1)c1cc(Br)c(Br)[nH]1` [2-(4,5-Dibromo-1H-pyrrole-2-carbonyl)-N-(4-nitrophenyl)hydrazine carbothioamide (5c)] are 42.1 µM and 13.7 µM.

Values taken from BindingDB's records for doi:10.1111/cbdd.12481 (University of Kwazulu-Nata, 2015).
